Columns and labels:
[1] = target: CDK2/Cyclin E1 (Homo sapiens, UniProt P24941); test: CDK2/Cyclin E1 Biochemical Assay (TR-FRET), 0.060 mM ATP; conditions: 0.15 μM Rb (Ser780)-biotin substrate, pH7.0, 60 min preincubation, 120 min reaction, room temperature
Method in brief: (§1)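 Inhibitor concentrations up to 10 μM were preincubated with each cyclin–kinase complex for 60 minutes before ATP and biotinylated Rb (Ser780) substrate (0.15 μM) were added. After 120 minutes at room temperature, phosphorylation was quantified by HTRF and IC50 values were fitted with a four-parameter logistic equation.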

[2] = target: CDK1/Cyclin B1 (Homo sapiens, UniProt P06493); test: CDK1/Cyclin B1 Biochemical Assay (TR-FRET), 0.015 mM ATP; conditions: 0.15 μM Rb (Ser780)-biotin substrate, pH7.0, 60 min preincubation, 120 min reaction, room temperature
Method in brief: as §1

Sequence of CDK1/Cyclin B1 (P06493 whole entry): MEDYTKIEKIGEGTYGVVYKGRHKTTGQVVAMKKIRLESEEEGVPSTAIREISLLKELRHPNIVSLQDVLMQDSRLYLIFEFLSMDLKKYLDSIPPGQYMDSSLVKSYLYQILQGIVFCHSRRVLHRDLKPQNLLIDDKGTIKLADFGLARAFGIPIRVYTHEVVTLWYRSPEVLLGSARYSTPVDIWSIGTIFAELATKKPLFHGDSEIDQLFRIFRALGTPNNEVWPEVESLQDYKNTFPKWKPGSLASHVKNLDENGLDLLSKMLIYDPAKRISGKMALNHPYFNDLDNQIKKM
Sequence of CDK1/Cyclin B1 (P14635 whole entry partner): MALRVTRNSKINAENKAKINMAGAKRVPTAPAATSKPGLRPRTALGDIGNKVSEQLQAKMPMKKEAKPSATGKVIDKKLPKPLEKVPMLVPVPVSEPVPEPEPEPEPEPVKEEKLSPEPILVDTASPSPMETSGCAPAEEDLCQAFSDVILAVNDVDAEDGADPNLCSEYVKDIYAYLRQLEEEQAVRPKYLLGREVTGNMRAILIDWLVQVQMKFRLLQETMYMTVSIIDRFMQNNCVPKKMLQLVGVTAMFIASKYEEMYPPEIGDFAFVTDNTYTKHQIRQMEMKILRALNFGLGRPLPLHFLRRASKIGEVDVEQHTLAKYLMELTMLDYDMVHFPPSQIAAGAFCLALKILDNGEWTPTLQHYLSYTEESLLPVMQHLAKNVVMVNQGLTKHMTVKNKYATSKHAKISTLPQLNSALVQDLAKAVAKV

SMILES	IC50 [1] [nM]	IC50 [2] [nM]
[2H]C([2H])([2H])N1c2ccc(Nc3cc([C@@H]4CC[C@H](OC(=O)NC(C)C)C4)[nH]n3)c(F)c2CS1(=O)=O (single isomer, unassigned) [Example 267a, cis-3-(3-((4-fluoro-1-(methyl-d3)-2,2-dioxido-1,3-dihydrobenzo[c]isothiazol-5-yl)amino)-1H-pyrazol-5-yl)cyclopentyl isopropylcarbamate]	7.8	142
COCC(C)(C)NC(=O)O[C@H]1CC[C@@H](c2cc(Nc3ccc4c(c3F)CN(C3CC3)S4(=O)=O)n[nH]2)C1 (relative stereo) [Example 371, cis-3-(3-((2-cyclopropyl-4-fluoro-1,1-dioxido-2,3-dihydrobenzo[d]isothiazol-5-yl)amino)-1H-pyrazol-5-yl)cyclopentyl(1-methoxy-2-methylpropan-2-yl)carbamate]	3.5	265
CC(C)NC(=O)O[C@H]1CC[C@@H](c2cc(Nc3ccc4c(c3F)CN(CCCO)S4(=O)=O)n[nH]2)C1 (relative stereo) [Example 113, cis-3-(3-((4-fluoro-2-(3-hydroxypropyl)-1,1-dioxido-2,3-dihydrobenzo[d]isothiazol-5-yl)amino)-1H-pyrazol-5-yl)cyclopentyl isopropylcarbamate]	3.6	288
CC1(NC(=O)O[C@H]2CC[C@@H](c3cc(Nc4cc5c(cc4F)N(CCO)S(=O)(=O)C5)n[nH]3)C2)CC1 (relative stereo) [Example 299, cis-3-(3-((6-fluoro-1-(2-hydroxyethyl)-2,2-dioxido-1,3-dihydrobenzo[c]isothiazol-5-yl)amino)-1H-pyrazol-5-yl)cyclopentyl(1-methylcyclopropyl)carbamate]	9	239
CC1(NC(=O)O[C@H]2CC[C@@H](c3cc(Nc4ccc5c(c4Cl)CNS5(=O)=O)n[nH]3)C2)CC1 (racemic) [Example 40, cis-3-(3-((4-chloro-1,1-dioxido-2,3-dihydrobenzo[d]isothiazol-5-yl)amino)-1H-pyrazol-5-yl)cyclopentyl(1-methylcyclopropyl)carbamate]	2.3	154
CCCNC(=O)O[C@H]1CC[C@@H](c2cc(Nc3ccc4c(c3F)C(C)NS4(=O)=O)n[nH]2)C1 (single isomer, unassigned) [Example 53d, cis-3-(3-((4-fluoro-3-methyl-1,1-dioxido-2,3-dihydrobenzo[d]isothiazol-5-yl)amino)-1H-pyrazol-5-yl)cyclopentyl propylcarbamate]	7.1	170
CC1(NC(=O)O[C@H]2CC[C@@H](c3cc(Nc4ccc5c(c4F)S(=O)(=O)NC5)n[nH]3)C2)CC1 (relative stereo) [Example 187, cis-3-(3-((7-fluoro-1,1-dioxido-2,3-dihydrobenzo[d]isothiazol-6-yl)amino)-1H-pyrazol-5-yl)cyclopentyl(1-methylcyclopropyl)carbamate]	0.7	14
CCCNC(=O)O[C@H]1CC[C@@H](c2cc(Nc3ccc4c(c3F)CN(C)S4(=O)=O)n[nH]2)C1 (single isomer, unassigned) [Example 122b, cis-3-(3-((4-fluoro-2-methyl-1,1-dioxido-2,3-dihydrobenzo[d]isothiazol-5-yl)amino)-1H-pyrazol-5-yl)cyclopentyl propylcarbamate]	8.8	124
[2H]C([2H])([2H])N1Cc2c(ccc(Nc3cc([C@@H]4CC[C@H](OC(=O)N[C@@H](C)CC)C4)[nH]n3)c2F)S1(=O)=O (relative stereo) [Example 131, cis-3-(3-((4-fluoro-2-(methyl-d3)-1,1-dioxido-2,3-dihydrobenzo[d]isothiazol-5-yl)amino)-1H-pyrazol-5-yl)cyclopentyl((S)-sec-butyl)carbamate]	1.4	152
CC[C@H](C)NC(=O)O[C@H]1CC[C@@H](c2cc(Nc3ccc4c(c3F)CN(C)S4(=O)=O)n[nH]2)C1 (single isomer, unassigned) [Example 123b]	2.6	219
Cc1cc(Nc2cc([C@@H]3CC[C@H](OC(=O)NC(C)C)C3)[nH]n2)cc2c1S(=O)(=O)NC2 (relative stereo) [Example 26, cis-3-(3-((7-methyl-1,1-dioxido-2,3-dihydrobenzo[d]isothiazol-5-yl)amino)-1H-pyrazol-5-yl)cyclopentyl isopropylcarbamate]	2	60
CC(C)NC(=O)O[C@H]1CC[C@@H](c2cc(Nc3ccc4c(c3F)CS(=O)(=O)N4C3COC3)n[nH]2)C1 (single isomer, unassigned) [Example 259b, cis-3-(3-((4-fluoro-1-(oxetan-3-yl)-2,2-dioxido-1,3-dihydrobenzo[c]isothiazol-5-yl)amino)-1H-pyrazol-5-yl)cyclopentyl isopropylcarbamate]	3	157
CC(=O)N1CCC(N2Cc3c(ccc(Nc4cc([C@@H]5CC[C@H](OC(=O)NC(C)C)C5)[nH]n4)c3F)S2(=O)=O)C1 (relative stereo) [Example 80, cis-3-(3-((2-(1-acetylpyrrolidin-3-yl)-4-fluoro-1,1-dioxido-2,3-dihydrobenzo[d]isothiazol-5-yl)amino)-1H-pyrazol-5-yl)cyclopentyl isopropylcarbamate]	10	767
CC[C@H](C)NC(=O)O[C@H]1CC[C@@H](c2cc(Nc3ccc4c(c3F)C(C)NS4(=O)=O)n[nH]2)C1 (single isomer, unassigned) [Example 54a]	1.1	309
CC(C)NC(=O)O[C@H]1CC[C@@H](c2cc(Nc3ccc4c(c3Cl)CNS4(=O)=O)n[nH]2)C1 (single isomer, unassigned) [Example 38a, cis-3-(3-((4-chloro-1,1-dioxido-2,3-dihydrobenzo[d]isothiazol-5-yl)amino)-1H-pyrazol-5-yl)cyclopentyl isopropylcarbamate]	38	1500
CC(C)NC(=O)O[C@H]1CC[C@@H](c2cc(Nc3ccc4c(c3F)CN(C3CCC3)S4(=O)=O)n[nH]2)C1 (relative stereo) [Example 67, cis-3-(3-((2-cyclobutyl-4-fluoro-1,1-dioxido-2,3-dihydrobenzo[d]isothiazol-5-yl)amino)-1H-pyrazol-5-yl)cyclopentyl isopropylcarbamate]	14	472
CC(C)NC(=O)O[C@H]1CC[C@@H](c2cc(Nc3ccc4c(c3)N(C)S(=O)(=O)C4)n[nH]2)C1 (relative stereo) [Example 308, cis-3-(3-((1-methyl-2,2-dioxido-1,3-dihydrobenzo[c]isothiazol-6-yl)amino)-1H-pyrazol-5-yl)cyclopentyl isopropylcarbamate]	2.2	26
CC1(NC(=O)O[C@H]2CC[C@@H](c3cc(Nc4ccc5c(c4F)CN(C4CC4)S5(=O)=O)n[nH]3)C2)CC1 (single isomer, unassigned) [Example 119a, cis-3-(3-((2-cyclopropyl-4-fluoro-1,1-dioxido-2,3-dihydrobenzo[d]isothiazol-5-yl)amino)-1H-pyrazol-5-yl)cyclopentyl(1-methylcyclopropyl)carbamate]	2.5	216
CCCNC(=O)O[C@H]1CC[C@@H](c2cc(Nc3ccc4c(c3F)CS(=O)(=O)N4C3COC3)n[nH]2)C1 (racemic) [Example 260, cis-3-(3-((4-fluoro-1-(oxetan-3-yl)-2,2-dioxido-1,3-dihydrobenzo[c]isothiazol-5-yl)amino)-1H-pyrazol-5-yl)cyclopentyl propylcarbamate]	3.2	110
CC1(O)CCN(C(=O)O[C@H]2CC[C@@H](c3cc(Nc4ccc5c(c4)CNS5(=O)=O)n[nH]3)C2)C1 (relative stereo) [Example 176, cis-3-(3-((1,1-dioxido-2,3-dihydrobenzo[d]isothiazol-5-yl)amino)-1H-pyrazol-5-yl)cyclopentyl 3-hydroxy-3-methylpyrrolidine-1-carboxylate]	8	230
CN1Cc2c(ccc(Nc3cc([C@@H]4CC[C@H](OC(=O)NC5CCC(O)CC5)C4)[nH]n3)c2F)S1(=O)=O (single isomer, unassigned) [Example 166, cis-3-(3-((4-fluoro-2-methyl-1,1-dioxido-2,3-dihydrobenzo[d]isothiazol-5-yl)amino)-1H-pyrazol-5-yl)cyclopentyl(4-hydroxycyclohexyl)carbamate]	2.9	74
CC(C)NC(=O)O[C@H]1CC[C@@H](c2cc(Nc3cc(CO)c4c(c3F)CNS4(=O)=O)n[nH]2)C1 (relative stereo) [Example 365, cis-3-(3-((4-fluoro-7-(hydroxymethyl)-1,1-dioxido-2,3-dihydrobenzo[d]isothiazol-5-yl)amino)-1H-pyrazol-5-yl)cyclopentyl isopropylcarbamat]	> 10000	> 10000
CC(C)NC(=O)O[C@H]1CC[C@@H](c2cc(Nc3ccc4c(c3)C(C)(C)NS4(=O)=O)n[nH]2)C1 (relative stereo) [Example 6, cis-3-(3-((3,3-dimethyl-1,1-dioxido-2,3-dihydrobenzo[d]isothiazol-5-yl)amino)-1H-pyrazol-5-yl)cyclopentyl isopropylcarbamate]	6.5	108
CN1c2ccc(Nc3cc([C@@H]4CC[C@H](OC(=O)NC5(C)CC5)C4)[nH]n3)cc2CS1(=O)=O (relative stereo) [Example 223, cis-3-(3-((1-methyl-2,2-dioxido-1,3-dihydrobenzo[c]isothiazol-5-yl)amino)-1H-pyrazol-5-yl)cyclopentyl(1-methylcyclopropyl)carbamate]	5.5	35

From patent US20260297080A1, “BICYCLIC COMPOUNDS AS CDK INHIBITORS” (BeOne Medicines I GmbH, priority 2022, published 2026)
